Results reported in ChEMBL document CHEMBL5649167, “The SUV4-20 inhibitor A-196 verifies a role for epigenetics in genomic integrity” (Nat Chem Biol, 2017).

Tests used:
[1] = target: Histone-lysine N-methyltransferase KMT5B (Homo sapiens, UniProt Q4FZB7); test: Inhibition of recombinant human 6His-(Tev)-G-SUV420H1 (69 to 335 residues) using Biotin-tagged H4K20me1 and [3H-SAM] as substrate incubated for 2 hrs by scintillation proximity assay
[2] = target: Histone-lysine N-methyltransferase KMT5C (Homo sapiens, UniProt Q86Y97); test: Inhibition of human SUV420H2 using Biotin-tagged H4K20me1 and [3H-SAM] as substrate incubated for 2 hrs by scintillation proximity assay
Chain of Histone-lysine N-methyltransferase KMT5C (Q86Y97 whole entry): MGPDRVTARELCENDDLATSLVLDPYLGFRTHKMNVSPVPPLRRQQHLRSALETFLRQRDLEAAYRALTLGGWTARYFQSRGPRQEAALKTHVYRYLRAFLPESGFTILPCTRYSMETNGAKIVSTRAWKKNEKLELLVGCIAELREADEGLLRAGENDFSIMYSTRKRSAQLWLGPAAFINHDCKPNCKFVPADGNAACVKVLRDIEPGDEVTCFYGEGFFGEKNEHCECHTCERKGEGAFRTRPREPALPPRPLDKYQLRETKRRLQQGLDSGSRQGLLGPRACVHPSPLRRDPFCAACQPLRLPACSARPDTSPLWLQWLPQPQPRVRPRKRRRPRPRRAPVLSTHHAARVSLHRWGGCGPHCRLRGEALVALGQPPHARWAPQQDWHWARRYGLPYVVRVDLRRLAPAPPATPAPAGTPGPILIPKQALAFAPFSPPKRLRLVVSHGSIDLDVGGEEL

Chain of Histone-lysine N-methyltransferase KMT5B (Q4FZB7 whole entry, the tested form may be a part): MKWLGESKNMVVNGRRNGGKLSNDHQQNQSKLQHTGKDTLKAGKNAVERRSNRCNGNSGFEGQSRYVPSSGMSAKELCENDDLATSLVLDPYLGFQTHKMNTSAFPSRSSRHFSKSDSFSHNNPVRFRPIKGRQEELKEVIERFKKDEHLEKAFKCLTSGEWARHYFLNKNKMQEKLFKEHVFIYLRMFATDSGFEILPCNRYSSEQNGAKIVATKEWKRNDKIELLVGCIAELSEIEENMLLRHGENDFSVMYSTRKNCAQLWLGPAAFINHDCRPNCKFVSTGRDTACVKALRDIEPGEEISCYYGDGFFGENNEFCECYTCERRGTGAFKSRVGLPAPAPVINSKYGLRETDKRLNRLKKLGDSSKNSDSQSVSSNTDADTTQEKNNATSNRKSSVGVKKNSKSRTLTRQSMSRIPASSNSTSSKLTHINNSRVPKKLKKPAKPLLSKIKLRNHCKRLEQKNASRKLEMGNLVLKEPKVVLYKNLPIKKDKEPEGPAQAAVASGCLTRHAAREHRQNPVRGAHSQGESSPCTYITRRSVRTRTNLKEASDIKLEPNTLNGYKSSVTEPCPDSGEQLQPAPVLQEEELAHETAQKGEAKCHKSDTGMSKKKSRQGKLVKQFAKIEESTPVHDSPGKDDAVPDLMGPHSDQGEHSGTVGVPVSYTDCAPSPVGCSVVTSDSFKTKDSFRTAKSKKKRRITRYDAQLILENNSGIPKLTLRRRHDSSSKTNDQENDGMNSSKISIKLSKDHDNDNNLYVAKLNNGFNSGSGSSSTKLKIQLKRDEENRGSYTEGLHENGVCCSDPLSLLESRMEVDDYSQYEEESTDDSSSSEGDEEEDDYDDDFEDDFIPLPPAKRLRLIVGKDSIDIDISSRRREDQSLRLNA

Compound	IC50 [1]	IC50 [2]
Clc1ccc2c(NC3CCCC3)ccnc2c1	5.9 µM	4800 nM
Clc1cc2nccc(NC3CCCC3)c2cc1Cl	0.59 µM	1200 nM
